Data reported in ChEMBL document CHEMBL1201862, “PubChem BioAssay data set” (2004).
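Following 48 hours of exposure in 96-well plates, responses at five concentrations were used to interpolate endpoints linearly. Abbreviation: GI50, concentration required for 50% inhibition of growth.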 Active and inactive are the calls of the source. No stated cut-off is given here; in the data, active = GI50 up to about 1.1 µM and inactive = higher.

How the values were obtained:
Experiment in all cases: DTP human tumour cell line panel, 48 h
SF-268 = tested on: SF-268
T47D = tested on: T47D
HOP-62 = tested on: HOP-62
KM12 = tested on: KM12
HCT-15 = tested on: HCT-15
HT-29 = tested on: HT-29
EKVX = tested on: EKVX
NCI-H23 = tested on: NCI-H23
RXF 393 = tested on: RXF 393
CAKI-1 = tested on: CAKI-1
HL-60 = tested on: HL-60
OVCAR-3 = tested on: OVCAR-3
A549 = tested on: A549
UO-31 = tested on: UO-31
HOP-92 = tested on: HOP-92
A498 = tested on: A498
SF-295 = tested on: SF-295
IGROV-1 = tested on: IGROV-1
OVCAR-8 = tested on: OVCAR-8

SMILES | GI50 (SF-268) | GI50 (T47D) | GI50 (HOP-62) | GI50 (KM12) | GI50 (HCT-15) [µM] | GI50 (HT-29) | GI50 (EKVX) | GI50 (NCI-H23) | GI50 (RXF 393) | GI50 (CAKI-1) | GI50 (HL-60) | GI50 (OVCAR-3) | GI50 (A549) | GI50 (UO-31) | GI50 (HOP-92) | GI50 (A498) | GI50 (SF-295) | GI50 (IGROV-1) | GI50 (OVCAR-8)
OCCn1cnc2c(SCc3ccccc3)ncnc21 | 71.8 µM (inactive) | > 100 µM (inactive) | > 100 µM (inactive) | > 100 µM (inactive) | 11.9 | > 100 µM (inactive) | > 100 µM (inactive) | > 100 µM (inactive) | > 100 µM (inactive) | > 100 µM (inactive) | 68.1 µM (inactive) | > 100 µM (inactive) | > 100 µM (inactive) | > 100 µM (inactive) | > 100 µM (inactive) | > 100 µM (inactive) | > 100 µM (inactive) | > 100 µM (inactive) | > 100 µM (inactive)
O=C(O)c1cc(C(=O)O)cc(N2C(=O)c3ccccc3C2=O)c1 | > 100 µM (inactive) | > 100 µM (inactive) | > 100 µM (inactive) | > 100 µM (inactive) | > 100 | > 100 µM (inactive) | > 100 µM (inactive) | > 100 µM (inactive) | > 100 µM (inactive) | > 100 µM (inactive) | > 100 µM (inactive) | > 100 µM (inactive) | > 100 µM (inactive) | > 100 µM (inactive) | > 100 µM (inactive) | > 100 µM (inactive) | > 100 µM (inactive) | > 100 µM (inactive) | > 100 µM (inactive)
COc1cc(OC)c(C2(c3c(OC(C)C)c(=O)c3=O)SCCCS2)cc1OC | > 100 µM (inactive) | > 100 µM (inactive) | > 100 µM (inactive) | > 100 µM (inactive) | > 100 | > 100 µM (inactive) | > 100 µM (inactive) | > 100 µM (inactive) | > 100 µM (inactive) | > 100 µM (inactive) | > 100 µM (inactive) | > 100 µM (inactive) | > 100 µM (inactive) | > 100 µM (inactive) | > 100 µM (inactive) | > 100 µM (inactive) | > 100 µM (inactive) | > 100 µM (inactive) | > 100 µM (inactive)
N#Cc1nc(COCCOCc2ccccc2)oc1N | > 100 µM (inactive) | > 100 µM (inactive) | > 100 µM (inactive) | > 100 µM (inactive) | > 100 | > 100 µM (inactive) | > 100 µM (inactive) | > 100 µM (inactive) | > 100 µM (inactive) | > 100 µM (inactive) | > 100 µM (inactive) | > 100 µM (inactive) | > 100 µM (inactive) | > 100 µM (inactive) | > 100 µM (inactive) | > 100 µM (inactive) | > 100 µM (inactive) | > 100 µM (inactive) | > 100 µM (inactive)
CC1=C(C(=O)NNC(=O)CC#N)CC(C(=O)NNC(=O)CC#N)=C(C)N1 | > 100 µM (inactive) | 93.3 µM (inactive) | > 100 µM (inactive) | > 100 µM (inactive) | > 100 | > 100 µM (inactive) | > 100 µM (inactive) | > 100 µM (inactive) | > 100 µM (inactive) | > 100 µM (inactive) | 82.6 µM (inactive) | > 100 µM (inactive) | > 100 µM (inactive) | > 100 µM (inactive) | > 100 µM (inactive) | > 100 µM (inactive) | > 100 µM (inactive) | > 100 µM (inactive) | > 100 µM (inactive)
CC(C)SC(=S)Sc1c(Cl)c(Cl)nc(Cl)c1Cl | 16.9 µM (inactive) | 1.96 µM (inactive) | 5.85 µM (inactive) | 8.24 µM (inactive) | 2.97 | 3.4 µM (inactive) | 8.22 µM (inactive) | 12.3 µM (inactive) | 4.57 µM (inactive) | 2.84 µM (inactive) | 2.44 µM (inactive) | 1.85 µM (inactive) | 16.9 µM (inactive) | 8 µM (inactive) | 7.69 µM (inactive) | 17.1 µM (inactive) | 16.3 µM (inactive) | 7.33 µM (inactive) | 3.46 µM (inactive)
Cc1nc(-n2nc(-c3ccccc3)cc2-c2ccccc2)sc1C(=O)/C=C/c1ccc([N+](=O)[O-])cc1 | 16.7 µM (inactive) | 9.25 µM (inactive) | 20.1 µM (inactive) | 9.29 µM (inactive) | 14 | 16.3 µM (inactive) | > 43 µM (inactive) | 18.4 µM (inactive) | 16.7 µM (inactive) | 24.9 µM (inactive) | 17.2 µM (inactive) | 10.4 µM (inactive) | > 59.7 µM (inactive) | 14 µM (inactive) | > 56.5 µM (inactive) | > 43.8 µM (inactive) | > 46.6 µM (inactive) | 20.5 µM (inactive) | 17.7 µM (inactive)
NS(=O)(=O)c1ccc(C(=O)O)cc1 [CARZENIDE] | > 100 µM (inactive) | > 100 µM (inactive) | > 100 µM (inactive) | > 100 µM (inactive) | > 100 | > 100 µM (inactive) | > 100 µM (inactive) | > 100 µM (inactive) | > 100 µM (inactive) | > 100 µM (inactive) | > 100 µM (inactive) | > 100 µM (inactive) | > 100 µM (inactive) | > 100 µM (inactive) | 97.5 µM (inactive) | > 100 µM (inactive) | > 100 µM (inactive) | > 100 µM (inactive) | > 100 µM (inactive)
COc1ccc(C(CC2(c3ccc(OC)cc3)SCCCS2)NC(C)=O)cc1 (stereo not given) | 87.3 µM (inactive) | 24.2 µM (inactive) | 47.1 µM (inactive) | 45.4 µM (inactive) | 37 | 65.2 µM (inactive) | 52.8 µM (inactive) | 29.4 µM (inactive) | 67.9 µM (inactive) | 72.3 µM (inactive) | 18.7 µM (inactive) | 45.6 µM (inactive) | 55.8 µM (inactive) | 96.4 µM (inactive) | 83.6 µM (inactive) | 90.6 µM (inactive) | 33.8 µM (inactive) | > 100 µM (inactive) | 42.3 µM (inactive)
CCOP(=O)(O)C(C)(C)NC | > 100 µM (inactive) | > 100 µM (inactive) | > 100 µM (inactive) | > 100 µM (inactive) | > 100 | > 100 µM (inactive) | > 100 µM (inactive) | > 100 µM (inactive) | > 100 µM (inactive) | > 10 µM (inactive) | > 100 µM (inactive) | > 100 µM (inactive) | > 100 µM (inactive) | > 100 µM (inactive) | > 100 µM (inactive) | > 100 µM (inactive) | > 100 µM (inactive) | > 100 µM (inactive) | > 100 µM (inactive)
Cn1c(-c2ccccc2)c2cc3nc4ccccc4nc3cc2c1-c1ccccc1 | 19 µM (inactive) | 24.5 µM (inactive) | 10.2 µM (inactive) | 11.6 µM (inactive) | 4.65 | 17.8 µM (inactive) | 31 µM (inactive) | 7.14 µM (inactive) | 22.3 µM (inactive) | 43.3 µM (inactive) | 20.1 µM (inactive) | 20.4 µM (inactive) | 3.94 µM (inactive) | 22.5 µM (inactive) | 25.3 µM (inactive) | 19.6 µM (inactive) | 14.4 µM (inactive) | 17.5 µM (inactive) | 22.1 µM (inactive)
CC12CC3CC/C(=N\O)C(C1)C3(N1CCOCC1)C/C2=N/O (stereo not given) | > 100 µM (inactive) | > 100 µM (inactive) | > 100 µM (inactive) | > 100 µM (inactive) | > 100 | > 100 µM (inactive) | > 100 µM (inactive) | > 100 µM (inactive) | > 100 µM (inactive) | > 100 µM (inactive) | 49.8 µM (inactive) | > 100 µM (inactive) | > 100 µM (inactive) | > 100 µM (inactive) | > 100 µM (inactive) | > 100 µM (inactive) | > 100 µM (inactive) | > 100 µM (inactive) | > 100 µM (inactive)
Cc1ccc(NC(=O)c2cc(S(=O)(=O)Nc3nc4cccnc4[nH]3)c(SSc3cc(Cl)c(C(=O)Nc4ccc(C)cc4)cc3S(=O)(=O)Nc3nc4cccnc4[nH]3)cc2Cl)cc1 | > 100 µM (inactive) | > 100 µM (inactive) | > 100 µM (inactive) | > 100 µM (inactive) | > 100 | > 100 µM (inactive) | > 100 µM (inactive) | > 100 µM (inactive) | > 100 µM (inactive) | > 100 µM (inactive) | > 100 µM (inactive) | > 100 µM (inactive) | > 100 µM (inactive) | > 100 µM (inactive) | > 100 µM (inactive) | > 100 µM (inactive) | > 100 µM (inactive) | > 100 µM (inactive) | > 100 µM (inactive)
NC(Cc1ccccc1)c1nn[nH]n1 (stereo not given) | > 100 µM (inactive) | > 100 µM (inactive) | > 100 µM (inactive) | > 100 µM (inactive) | > 100 | > 100 µM (inactive) | > 100 µM (inactive) | > 100 µM (inactive) | > 100 µM (inactive) | > 100 µM (inactive) | > 100 µM (inactive) | > 100 µM (inactive) | > 100 µM (inactive) | > 100 µM (inactive) | > 100 µM (inactive) | > 100 µM (inactive) | > 100 µM (inactive) | > 100 µM (inactive) | > 100 µM (inactive)
O=C(C1OC1c1ccc(Cl)cc1)C12CC3CC(CC(C3)C1)C2 (stereo not given) | 20.8 µM (inactive) | 31.6 µM (inactive) | 24.8 µM (inactive) | 18.8 µM (inactive) | 20.1 | 21 µM (inactive) | 23.1 µM (inactive) | 14.4 µM (inactive) | 21.8 µM (inactive) | 28.8 µM (inactive) | 18.3 µM (inactive) | 15.8 µM (inactive) | 21.8 µM (inactive) | 20.4 µM (inactive) | 16.9 µM (inactive) | 23.7 µM (inactive) | 18.2 µM (inactive) | 23.6 µM (inactive) | 16.5 µM (inactive)
